The values that follow come from patent US8431559B2, “Treatment of hot flashes” (priority 2008, dated 2013).

Series [1] deals with rats, mice, rabbits and dogs. As to the kind of experiment: Acute and multidose (28 day) toxicity studies, intranasal and intravenous. It counts as in vivo. The conditions noted are these: single intranasal up to 100 μg/rat, 400 μg/rabbit, 600 μg/dog; repeated up to 50 μg/rat/day, 300 μg/dog/day; intravenous single and repeated up to 2.5 mg/kg.
A short description of series [2]: Ames reverse mutation assay. The series is classed as cell-based.
The test system of the next series is bone marrow. As to the kind of experiment: in vivo bone marrow micronucleus test.
A further series deals with pregnant rabbits. As to the kind of experiment: Reproductive toxicity studies in pregnant rabbits. It counts as in vivo. The conditions noted are these: intravenous doses up to 2.5 mg/kg/day during the period of organogenesis.
Series [3] can be described thus: Preclinical pharmacokinetic studies, intranasal doses. It counts as in vivo. The conditions noted are these: repeated or single escalating intranasal doses up to 100 μg/rat, 400 μg/rabbit, 600 μg/dog.
Series [4] in a line: Preclinical pharmacokinetic studies, intravenous doses. The series is classed as in vivo, rats, rabbits, or dogs. The following applies: single repeated intravenous doses up to 2.5 mg/kg.
Series [5] relates to women of reproductive age. Description: Intranasal spray 500 nanograms in 14 women of reproductive age, autonomic and physiologic effects vs vehicle. It counts as in vivo, human. The following applies: 500 nanograms intranasal, compared to the vehicle.
For series [6], the system named is women of reproductive age. Description: Intranasal spray 1600 nanograms in women of reproductive age, core body temperature and sympathoadrenergic tone. The series is classed as in vivo, human. The conditions noted are these: 1600 nanograms intranasal. On the procedure: In another test also in women of reproductive age, intranasal delivery of a nasal spray containing 1600 nanograms of 16α,17α-epoxy-10β-hydroxyestr-4-en-3-one (one administration per nostril by a Valois intranasal spray pump of 50 μL of an aqueous solution of 16 μg/mL 16α,17α-epoxy-10β-hydroxyestr-4-en-3-one with 2% propylene glycol and 2% ethanol) caused a rapid (0.5 to 4 minute latency) decrease in core body temperature of 1±0.23° C. that persisted for 9±2.5 minutes.

Series [7] deals with hot flashes. The following applies: 27% for placebo, cited from earlier work.
For series [8], the system named is hot flashes. The conditions noted are these: vs. 29% for placebo; cited from earlier work.
For series [9], the system named is hot flashes. The conditions noted are these: crossover analysis; cited from earlier work.
Series [10] deals with hot flashes. The conditions noted are these: cited from earlier work.
In series [11] the test system is hot flashes. The conditions noted are these: oral and transdermal clonidine; cited from earlier work.
The test system of series [12] is hot flashes. The conditions noted are these: placebo response rate 37.8%, cited from earlier work.

Read-outs that look alike come from different tables or passages of the source.

`C[C@]12CC[C@H]3[C@@H](CCC4=CC(=O)CC[C@@]43O)[C@@H]1C[C@H]1O[C@H]12` [16α,17α-epoxy-10β-hydroxyestr-4-en-3-one, 16α,17α-Epoxy-10β-hydroxyestr-4-en-3-one]: the “tolerability (deaths, adverse clinical signs, effects on laboratory or pathology parameters)” value in [1] is on record as “well tolerated in all species tested”. Further, the “mutagenic or clastogenic potential” value in series [2] was “no evidence of mutagenic or clastogenic potential”. The “mutagenic or clastogenic potential” value in the series on bone marrow is listed as “no evidence of mutagenic or clastogenic potential”. Also, the “effects on maternal or litter parameters” value with pregnant rabbits was “no adverse effects on maternal or litter parameters”. Besides, the systemic exposure result in [3] is given as “very low systemic exposure”. Also, the plasma concentrations result in series [4] was “generally were dose-proportional and decreased rapidly”. In series [5], the cardiac frequency result was “not statistically significant increase”, the core body temperature entry is given as “statistically significant decreases”, the “electrodermal activity (skin conductance)” value is “statistically significant decreases” and the electromyographic activity result is recorded as “statistically significant decreases”. Besides, in [5], the respiratory frequency entry is “statistically significant decreases” and the vagal tone entry is “statistically significant increases”. Further, in series [6], the “decrease in core body temperature” value is 1±0.23 °C, the “persistence of decrease in core body temperature” value was 9 ± 2.5 min and the “time to reduced tone of the sympathoadrenergic system (physiologic sinus arrhythmia)” value is on record as at most 5 minutes.
Regarding `COc1ccc(C(CN(C)C)C2(O)CCCCC2)cc1` (stereo not drawn) [venlafaxine, Venlafaxine], the “reduction of hot flash scores from baseline” value is 37% with hot flashes [7] (37.5 mg/day); 60% in the series on hot flashes [7] (75 and 150 mg/day).
For `NCC1(CC(=O)O)CCCCC1` [Gabapentin], the “reduction of hot flash frequency” value in the series on hot flashes [8] was 45%.
With `CNCCC(Oc1ccc(C(F)(F)F)cc1)c1ccccc1` (stereo not drawn) [Fluoxetine], the “reduction in hot flash frequency over the placebo condition” value in the series on hot flashes [9] was around 20%.
`Clc1cccc(Cl)c1N=C1NCCN1` [clonidine, Clonidine]: the “reduction of hot flash frequency” value with hot flashes [10] (oral clonidine) was 46%; in the series with hot flashes [10] (transdermal clonidine) it was 80%. Also, the “reductions in hot flash frequency compared with placebo” value in the series with hot flashes [11] is “smaller, but significant reductions”.
As to `Fc1ccc([C@@H]2CCNC[C@H]2COc2ccc3c(c2)OCO3)cc1` [Paroxetine], the “decrease of hot flash composite scores” value with hot flashes [12] (12.5 mg/day) is 62%; in the series with hot flashes [12] (25.0 mg/day), 65%.
